These results are taken from patent publication US12583892B2 (priority 2020, dated 2026).

This test concerns NMDAR-dependent EPSCs. Type of test: cell-based, rat.

On to `CC(C(O)c1ccc(O)cc1)N1CCC(Cc2ccccc2)CC1` (stereo not shown) [ifenprodil], for which the “NMDARs-dependent EPSCs, young neurons” value is “inhibition”.
